Reference: patent US11667602B2, “Compounds and their use” (AstraZeneca AB, priority 2020, dated 2023)
Converted amounts (≈) assume the structure as drawn. Read-outs that look alike come from different tables or passages of the source.

Key:
[1] = Human Liver Microsomal Stability (Test C); format: in vitro ADME; settings: human, liver microsomes
Outline: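 Human liver microsome incubation per the Wernevik et al. integrated DMPK panel protocol. Intrinsic clearance reported as CLint in μl/min/mg protein, averaged arithmetically over repeat runs.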

[2] = Rat Hepatocyte Stability (Test E); format: in vitro ADME; settings: rat, hepatocytes, geometric mean if run multiple times
Outline: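 Run per the published AstraZeneca-type rat hepatocyte stability protocol (Wernevik et al. panel). Values are mean intrinsic clearance, Clint in μl/min/10^6 cells; geometric mean used for repeated runs.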

Solubility (Test F) = format: physicochemical; settings: arithmetic mean if run multiple times
Procedure: The assay was conducted according to the Solubility Assay described in pages 164-167 of Wernevik, J. et al., “A Fully Integrated Assay Panel for Early Drug Metabolism and Pharmacokinetics Profiling”, Assay and Drug Development Technologies, 2020, 18(4), 157-179. Data are reported in Table 36 as solubility ([…]. Where the assay was run multiple times for the same compound, the arithmetic mean is reported.

[3] = Human Hepatocyte Stability (Test D); format: in vitro ADME; settings: human, cryopreserved pooled human hepatocytes (LiverPool 10-Donor), geometric mean if run multiple times
Outline: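 Pooled 10-donor cryopreserved human hepatocytes (≥80% viable) in L-15 medium at 0.25×10^6 cells per 0.25 mL well. Compound added from 100 μM acetonitrile solution; incubated at 37 °C with shaking, acetonitrile-quenched, LC-MS analysed. Clint (μL/min/10^6 cells) from ln % parent vs time slope; geometric mean of repeat runs.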

human RXFP1 = target: T1, human RXFP1 (Homo sapiens, UniProt Q9HBX9); experiment: RXFP1 Hu cAMP (Test A); format: cell-based; design: expressed in transfected cells; host or cells: Jump-In T-REx CHO-K1 cells (ThermoFisher), induced with 10 ng/ml doxycycline for 24 h
T1 sequence (Q9HBX9 1-757): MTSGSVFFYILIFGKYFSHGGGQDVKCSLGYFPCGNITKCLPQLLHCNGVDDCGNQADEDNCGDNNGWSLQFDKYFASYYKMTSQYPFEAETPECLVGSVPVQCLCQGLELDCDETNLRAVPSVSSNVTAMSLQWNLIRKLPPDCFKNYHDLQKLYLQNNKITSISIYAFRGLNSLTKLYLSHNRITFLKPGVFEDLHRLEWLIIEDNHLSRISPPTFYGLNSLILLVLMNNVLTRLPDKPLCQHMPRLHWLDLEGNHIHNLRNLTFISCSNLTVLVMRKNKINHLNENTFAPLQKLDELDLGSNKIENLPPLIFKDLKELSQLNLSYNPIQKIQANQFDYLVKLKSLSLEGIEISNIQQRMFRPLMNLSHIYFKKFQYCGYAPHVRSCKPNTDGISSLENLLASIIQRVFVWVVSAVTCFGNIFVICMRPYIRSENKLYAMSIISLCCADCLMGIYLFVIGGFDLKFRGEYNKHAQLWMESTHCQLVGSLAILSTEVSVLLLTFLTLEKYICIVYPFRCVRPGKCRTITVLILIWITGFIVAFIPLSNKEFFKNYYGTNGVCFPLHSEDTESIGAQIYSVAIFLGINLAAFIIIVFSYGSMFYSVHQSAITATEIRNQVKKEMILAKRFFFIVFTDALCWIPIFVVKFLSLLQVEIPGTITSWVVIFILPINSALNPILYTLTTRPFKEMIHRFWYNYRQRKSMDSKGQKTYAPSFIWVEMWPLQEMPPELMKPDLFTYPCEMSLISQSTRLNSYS
Outline: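 Read-out is HTRF signal, inversely proportional to cAMP, converted to cAMP amount by standard curve. Stimulation occurred in inducible CHO-K1 cells expressing the human receptor with phosphodiesterases blocked by 0.5 mM IBMX.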

[4] = Human Plasma Protein Binding (Test B); format: in vitro ADME; settings: fraction unbound (fu)
Outline: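 Human plasma protein binding run per the published Wernevik et al. (2020) integrated DMPK panel protocol. Values are fraction unbound (fu, % free); repeat runs averaged arithmetically.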

[5] = RXFP1 Hu cAMP, read-out: Test A EC50

| Structure (SMILES) | microsomal CLint [1] [µL/min/mg] | hepatocyte CLint [2] [µL/min/1e6 cells] | solubility (Solubility (Test F)) [µM] | hepatocyte CLint at 1 µM [3] [µL/min/1e6 cells] | Test A Sinf (human RXFP1; RXFP1 Hu cAMP) [%] | EC50 (human RXFP1; [5]) [nM] | Test B Human Plasma Protein Binding (% free) [4] [% free] | EC50 (human RXFP1; Test A EC50, RXFP1 Hu cAMP) [nM] |
| --- | --- | --- | --- | --- | --- | --- | --- | --- |
| COc1cc(F)c(O[C@H]2CC[C@@](C)(C(=O)O)CC2)cc1C(=O)Nc1cnccc1C(=O)NCC1(C)CCC1 [Example 150, (1s,4s)-4-(2-Fluoro-4-methoxy-5-((4-(((1-methylcyclobutyl)methyl)carbamoyl)pyridin-3-yl)carbamoyl)phenoxy)-1-methylcyclohexane-1-carboxylic acid] | < 3 | 39 | 16 (≈ 8.44 µg/mL) | 4.9 | 95 | 460 | 1.8 |  |
| COc1cc(F)c(O[C@H]2CC[C@@H](C(=O)O)CC2)cc1C(=O)N[C@@H]1CCC[C@@H]1C(=O)Nc1ccc(F)c(C(F)(F)F)c1 [Example 492] | 36 | 19 | 1000 (≈ 585 µg/mL) | 18 | 106 | 160 | 1.8 |  |
| COc1cc(F)c(O[C@H]2CC[C@@](C)(C(=O)O)CC2)cc1C(=O)N[C@@H]1[C@H]2CC[C@H](C2)[C@@H]1C(=O)N[C@@H]1CCN(S(=O)(=O)C(F)(F)F)C1 [Example 605] | 25 | 12 | 890 (≈ 591 µg/mL) | 4.3 | 106 | 79 | 8.6 |  |
| COc1cc(F)c(O[C@H]2CC[C@@](C)(C(=O)O)CC2)cc1C(=O)N[C@@H]1[C@H]2CC[C@H](C2)[C@@H]1C(=O)N[C@H](C)C1(C)CC1 (racemic) [Example 39] | 24 | 59 | 980 (≈ 534 µg/mL) | 8.2 | 96 | 740 | 4.8 |  |
| COc1c(F)cc(O[C@H]2CC[C@@](C)(C(=O)O)CC2)cc1C(=O)N[C@@H]1[C@H]2CC[C@H](C2)[C@@H]1C(=O)NCC1(C)CCC1 [Example 374] | 44 | 21 | 680 (≈ 370 µg/mL) | 5.3 |  |  | 2.9 | 44 |
| COc1cc(F)c(O[C@H]2CC[C@@](C)(C(=O)O)CC2)cc1C(=O)N[C@@H]1[C@H]2CC[C@H](C2)[C@@H]1C(=O)NCC1(F)CCOCC1 [Example 146, (1S,4s)-4-(2-Fluoro-5-(((1S,2R,3S,4R)-3-(((4-fluorotetrahydro-2H-pyran-4-yl)methyl)carbamoyl)bicyclo[2.2.1]heptan-2-yl)carbamoyl)-4-methoxyphenoxy)-1-methylcyclohexane-1-carboxylic acid] | < 3 | 14 | 1000 (≈ 579 µg/mL) | < 1 | 87 | > 1900 | 24 |  |
| COc1cc(F)c(O[C@H]2CC[C@@H](C(=O)O)CC2)cc1C(=O)N[C@@H]1CC(F)(F)C[C@@H]1C(=O)Nc1ccc(F)c(C(F)(F)F)c1 (racemic) [Example 493] | < 3 | 4 | 38 (≈ 23.6 µg/mL) | 2.4 | 108 | 420 | 1.3 |  |

Now from value to molecule, other results behind:

| microsomal CLint [1] [µL/min/mg] | hepatocyte CLint [2] [µL/min/1e6 cells] | solubility (Solubility (Test F)) [µM] | hepatocyte CLint at 1 µM [3] [µL/min/1e6 cells] | Test A Sinf (human RXFP1; RXFP1 Hu cAMP) [%] | EC50 (human RXFP1; [5]) [nM] | Test B Human Plasma Protein Binding (% free) [4] [% free] | Structure (SMILES) | EC50 (human RXFP1; Test A EC50, RXFP1 Hu cAMP) [nM] |
| --- | --- | --- | --- | --- | --- | --- | --- | --- |
| < 3 | 7 | 920 (≈ 586 µg/mL) | 3.7 | 98 |  | 0.81 | COc1cc(F)c(-c2cnn(CC(=O)O)c2)cc1C(=O)N[C@H]1[C@@H](C(=O)Nc2cccc(S(=O)(=O)C(F)(F)F)c2)[C@@H]2C=C[C@H]1C2 [Example 271, 2-(4-(2-Fluoro-4-methoxy-5-(((1R,2R,3S,4S)-3-((3-((trifluoromethyl)sulfonyl)phenyl)carbamoyl)bicyclo[2.2.1]hept-5-en-2-yl)carbamoyl)phenyl)-1H-pyrazol-1-yl)acetic acid] |  |
| < 3 | 18 | 700 (≈ 443 µg/mL) | 5.4 | 103 |  | <0.30 | COc1cc(F)c(-c2cccc(C(=O)O)c2)cc1C(=O)N[C@H]1[C@@H](C(=O)Nc2cccc(S(=O)(=O)C(F)(F)F)c2)[C@@H]2C=C[C@H]1C2 (single isomer, unassigned) [Example 554] |  |
| 21 | 18 | 560 (≈ 354 µg/mL) | 13 |  | > 50000 | <0.30 | COc1cc(F)c(-c2cccc(C(=O)O)c2)cc1C(=O)N[C@@H]1[C@H](C(=O)Nc2cccc(S(=O)(=O)C(F)(F)F)c2)[C@H]2C=C[C@@H]1C2 (single isomer, unassigned) [Example 555] |  |
| > 300 | 130 | 5 (≈ 2.97 µg/mL) | 78 | 113 |  | 0.19 | COc1cc(F)c(Cc2cn[nH]c2)cc1C(=O)N[C@@H]1[C@H]2CC[C@H](C2)[C@@H]1C(=O)Nc1cccc(S(=O)(=O)C(F)(F)F)c1 [Example 219, (1R,2S,3R,4S)-3-(5-((1H-Pyrazol-4-yl)methyl)-4-fluoro-2-methoxybenzamido)-N-(3-((trifluoromethyl)sulfonyl)phenyl)bicyclo[2.2.1]heptane-2-carboxamide] |  |
| > 300 | 98 | 8 (≈ 4.88 µg/mL) | 45 | 110 | 64 | 0.44 | COc1cc(F)c(O[C@H]2CC[C@@H](C(N)=O)CC2)cc1C(=O)N[C@@H]1[C@H]2CC[C@H](C2)[C@@H]1C(=O)Nc1ccc(F)c(C(F)(F)F)c1 [Example 500, (1R,2S,3R,4S)-3-(5-(((1s,4S)-4-Carbamoylcyclohexyl)oxy)-4-fluoro-2-methoxybenzamido)-N-(4-fluoro-3-(trifluoromethyl)phenyl)bicyclo[2.2.1]heptane-2-carboxamide] |  |
| 47 | 16 | 21 (≈ 13.9 µg/mL) | 16 | 91 | 640 | 5 | COc1cc(F)c(O[C@H]2CC[C@@](C)(C(=O)O)CC2)cc1C(=O)N[C@@H]1[C@H](O)CC[C@@H]1C(=O)Nc1cccc(S(=O)(=O)C(F)(F)F)c1 (racemic) [Example 396, (1R,4s)-4-(2-Fluoro-5-(((1SR,2RS,5SR)-2-hydroxy-5-((3-((trifluoromethyl)sulfonyl)phenyl)carbamoyl)cyclopentyl)carbamoyl)-4-methoxyphenoxy)-1-methylcyclohexane-1-carboxylic acid] |  |
| 43 | 15 | 190 (≈ 129 µg/mL) | 11 | 113 | 320 | 3.4 | COc1cc(F)c(-c2ccn(CCC(=O)O)c(=O)c2)cc1C(=O)N[C@@H]1[C@H]2CC[C@H](C2)[C@@H]1C(=O)Nc1cccc(S(=O)(=O)C(F)(F)F)c1 [Example 249] |  |
